Converted amounts (≈) assume the structure as drawn. Like-named read-outs stand apart in the source and are kept apart here.
Columns and labels:
OLE1 promoter = test: OLE1 promoter-lacZ reporter induction (chemiluminescence); format: cell-based, S. cerevisiae
Excerpt: (§1) The OLE1, YOL101c, and YGL039w promoters (along with their respective ATG translation start sites) each were, individually, flised to a lacZ reporter gene (which lacked an ATG translation start site) and introduced in the vector pRS415. The resulting reporter plasmids were then, separately, introduced into a multi-drug resistant yeast strain, thereby producing PL1, P41, and Ml, which are identical to each other except that PL1 carries the […], and M1 carries the YGL039w promoter (Millennium Pharmaceuticals, Inc., MMB#1495, 1497 and 1604, respectively). These yeast strains can be readily used to measure the level of activity of the OLE1, YOL101c, or YGL039w promoter by measuring expression of the lacZ gene. Enzymatic and colorimetric assays for measuring lacZ gene expression are well known in the art and can be used in the invention.
For example, the test compounds can be tested at concentrations of 25 μM and 100 μM. In a convenient high throughput screening method, the test compounds can be assayed in the wells of a multiple-well (e.g., 96-well) plastic plate (e.g., Packard, Inc. Cat. # 6005181), with each well containing a different test compound. Thus, one plate can contain the test compounds at a concentration of 25 μM, while another plate contains the test compounds at a concentration of 100 μM. Each well also contains up to 2.5% DMSO.
Cerulenin is used as a positive control in wells lacking a test compound. A stock solution of cerulenin (2,3-Epoxy-4-oxo-[…]) can be prepared to a concentration of 10 mg/ml in DMSO and stored at −20° C.
Induction of OLE1 Promoter Activity: The yeast glycerol stocks described above are used to prepare fresh yeast cultures that are used in the screening assays. The cell suspension, if frozen, is thawed at 37° C., and 33 μl of the stock is added to 12 ml of SC-Leu medium. The culture then is incubated in a shaking Erlemneyer flask at 30° C. overnight (approximately 14-15 hours). The OD600 of the culture then is measured, with a culture having an OD600 of 0.05-0.15 being suitable for use. […] 1; if necessary, the culture can be diluted with SC-Leu medium to obtain the desired OD600. A 100 μI aliquot of the yeast culture then is added to each well of the 96-well plate containing a test compound, and the cultures are incubated at 30° C. for approximately 6 hours.
To assay for an increase in the activity of the OLE1 promoter, an increase in the level of the lacZ reporter gene expression is measured. A 100 μl aliquot of 2 X substrate buffer is added to each well of the plate. To produce a 100 ml sample of 2 X substrate buffer, the following components are mixed within 1 hour of use, and kept at room temperature: 4.0 ml of GALACTON-STAR™ substrate ((3-chloro-5-(4-methoxyspiro { 1,2-dioxetane-3,2′-(4′chloro)-tricyclo-[3.3.1.1 ^3,7] decan} -4-yl)phenyl-B-D-galactopyranoside); Tropix, Inc., Cat. #GS100), 20.0 ml of SAPHIRE II™ luminescence signal enhancer (Tropix, Inc., Cat. #LAX250), and 76 ml of Lysis Buffer (0.026% Na Deoxycholic acid, 0.053% CTAB, 265 mM NaCl, 395 mM HEPES, pH 7.5). The plates are incubated at room temperature for 45 minutes, before vortexing them for 30 seconds at a low to moderate speed.
A chemiluminescent signal is produced by reaction of β-galactosidase with the substrate. Chemiluminescence can be measured using a TopCount-HTS, with the data mode set to measure […], and with a count time of 0.1 minute. Generally, chemiluminescence should be measured before significant signal decay occurs (i.e., within approximately 90 minutes of initiating the reaction).
Screening plates containing 80,000 individual small molecule compounds (comprising a diversity file) were prepared at concentrations of 100 μM in 96-well plastic clear-bottom plates (Packard, Inc. Cat. # 6005181).

[1] = tested on: S. cerevisiae MMB1493 or C. albicans SC5314 or Y01.06; test: 14C-acetate incorporation into fatty acids; format: cell-based; conditions: 10 minutes preincubation, 10 minutes with 14C-acetate, 30° C.
Procedure: Generally, ^14C-acetate incorporation is measured essentially as described in Kuhajda et al., P.N.A.S., 91:6379-6383, 1994. Logarithmically growing cells (4^8 cells of S. cerevisiae MMB1493 or C. albicans SC5314 or Y01.06) were preincubated with 100 μM compounds in DMSO for 10 minutes at 30° C. ^14C-Acetate was added to 20 μCi, mixed and further incubated for 10 minutes at 30° C. Fatty acids were recovered by alkaline ethanolysis (7.5% KOH in 90% ethanol, 1 00ul) at 50° C. for 1 hour, followed by acidification with concentrated HCl (15 μl) and petroleum ether extraction. The radioactivity in the organic layer was counted using a Beckman LS650 multipurpose scintillation counter using Betamax (ICN) scintillation fluid. Cerulenin was used as control at 100 μM; at this concentration 80-90% inhibition was routinely observed in this assay.

[2] = target: T1, Saccharomyces cerevisiae FAS complex (Saccharomyces cerevisiae, UniProt P07149+P19097); test: FAS assay measuring NADPH oxidation; format: biochemical
T1 construct: A FAS assay using partially purified S. cerevisiae FAS complex was used to measure NADPH oxidation; tissue Sigma; host or cells: yeast extract (Sigma), FAS complex partially purified after Stoops et al. 1978
T1 sequence (P07149 whole entry): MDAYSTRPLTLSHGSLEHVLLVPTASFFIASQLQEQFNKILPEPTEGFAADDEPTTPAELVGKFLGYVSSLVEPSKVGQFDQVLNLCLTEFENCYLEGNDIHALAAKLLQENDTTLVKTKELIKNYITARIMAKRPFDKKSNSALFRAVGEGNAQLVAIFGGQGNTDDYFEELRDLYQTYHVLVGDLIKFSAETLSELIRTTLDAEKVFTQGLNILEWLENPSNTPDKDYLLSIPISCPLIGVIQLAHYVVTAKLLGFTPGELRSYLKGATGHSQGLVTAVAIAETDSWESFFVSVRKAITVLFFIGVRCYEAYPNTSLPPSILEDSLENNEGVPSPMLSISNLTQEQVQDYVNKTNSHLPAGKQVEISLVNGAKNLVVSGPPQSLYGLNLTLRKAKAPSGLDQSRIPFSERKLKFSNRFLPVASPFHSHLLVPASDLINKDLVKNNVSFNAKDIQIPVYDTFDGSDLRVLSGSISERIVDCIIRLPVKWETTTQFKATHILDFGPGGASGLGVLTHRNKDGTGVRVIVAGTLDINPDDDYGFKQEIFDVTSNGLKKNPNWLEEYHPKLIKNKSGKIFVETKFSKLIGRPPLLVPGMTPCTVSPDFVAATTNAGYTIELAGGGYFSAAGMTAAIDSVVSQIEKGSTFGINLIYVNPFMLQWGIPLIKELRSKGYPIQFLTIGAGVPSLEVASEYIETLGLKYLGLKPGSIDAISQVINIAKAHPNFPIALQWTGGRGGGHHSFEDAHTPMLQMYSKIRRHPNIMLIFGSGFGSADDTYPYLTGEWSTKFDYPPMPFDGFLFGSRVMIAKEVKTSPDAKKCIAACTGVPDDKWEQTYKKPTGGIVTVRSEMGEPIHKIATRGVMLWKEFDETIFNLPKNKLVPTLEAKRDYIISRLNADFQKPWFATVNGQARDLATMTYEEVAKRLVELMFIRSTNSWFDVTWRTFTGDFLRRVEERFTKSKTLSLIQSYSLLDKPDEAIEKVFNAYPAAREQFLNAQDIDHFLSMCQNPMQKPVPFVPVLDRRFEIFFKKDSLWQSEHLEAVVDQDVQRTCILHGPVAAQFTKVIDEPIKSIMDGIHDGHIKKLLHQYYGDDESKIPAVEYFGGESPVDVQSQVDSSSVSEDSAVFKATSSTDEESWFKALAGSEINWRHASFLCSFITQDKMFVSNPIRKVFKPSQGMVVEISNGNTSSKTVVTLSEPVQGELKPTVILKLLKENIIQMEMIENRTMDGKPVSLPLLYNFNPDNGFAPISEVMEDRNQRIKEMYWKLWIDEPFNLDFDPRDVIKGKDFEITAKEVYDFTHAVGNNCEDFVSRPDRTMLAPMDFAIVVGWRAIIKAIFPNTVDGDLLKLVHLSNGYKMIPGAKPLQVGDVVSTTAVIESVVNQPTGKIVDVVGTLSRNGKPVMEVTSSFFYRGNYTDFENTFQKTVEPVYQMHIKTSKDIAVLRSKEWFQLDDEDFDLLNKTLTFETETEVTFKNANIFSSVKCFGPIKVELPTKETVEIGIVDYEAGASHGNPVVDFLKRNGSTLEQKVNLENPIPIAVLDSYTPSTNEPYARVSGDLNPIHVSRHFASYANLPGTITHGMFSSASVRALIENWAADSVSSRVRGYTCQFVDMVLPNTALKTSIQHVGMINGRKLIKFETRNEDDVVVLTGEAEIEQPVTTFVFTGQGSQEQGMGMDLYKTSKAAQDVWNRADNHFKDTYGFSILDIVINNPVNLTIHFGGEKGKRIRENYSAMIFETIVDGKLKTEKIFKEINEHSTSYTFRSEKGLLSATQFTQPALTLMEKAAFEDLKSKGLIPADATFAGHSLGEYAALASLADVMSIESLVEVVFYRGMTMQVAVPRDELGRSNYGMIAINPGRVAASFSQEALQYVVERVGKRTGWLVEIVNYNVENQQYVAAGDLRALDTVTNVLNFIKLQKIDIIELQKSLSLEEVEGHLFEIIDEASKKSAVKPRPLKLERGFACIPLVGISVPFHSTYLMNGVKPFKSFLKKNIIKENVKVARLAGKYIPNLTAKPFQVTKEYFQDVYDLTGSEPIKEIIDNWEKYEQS
T1 sequence (P19097 whole entry): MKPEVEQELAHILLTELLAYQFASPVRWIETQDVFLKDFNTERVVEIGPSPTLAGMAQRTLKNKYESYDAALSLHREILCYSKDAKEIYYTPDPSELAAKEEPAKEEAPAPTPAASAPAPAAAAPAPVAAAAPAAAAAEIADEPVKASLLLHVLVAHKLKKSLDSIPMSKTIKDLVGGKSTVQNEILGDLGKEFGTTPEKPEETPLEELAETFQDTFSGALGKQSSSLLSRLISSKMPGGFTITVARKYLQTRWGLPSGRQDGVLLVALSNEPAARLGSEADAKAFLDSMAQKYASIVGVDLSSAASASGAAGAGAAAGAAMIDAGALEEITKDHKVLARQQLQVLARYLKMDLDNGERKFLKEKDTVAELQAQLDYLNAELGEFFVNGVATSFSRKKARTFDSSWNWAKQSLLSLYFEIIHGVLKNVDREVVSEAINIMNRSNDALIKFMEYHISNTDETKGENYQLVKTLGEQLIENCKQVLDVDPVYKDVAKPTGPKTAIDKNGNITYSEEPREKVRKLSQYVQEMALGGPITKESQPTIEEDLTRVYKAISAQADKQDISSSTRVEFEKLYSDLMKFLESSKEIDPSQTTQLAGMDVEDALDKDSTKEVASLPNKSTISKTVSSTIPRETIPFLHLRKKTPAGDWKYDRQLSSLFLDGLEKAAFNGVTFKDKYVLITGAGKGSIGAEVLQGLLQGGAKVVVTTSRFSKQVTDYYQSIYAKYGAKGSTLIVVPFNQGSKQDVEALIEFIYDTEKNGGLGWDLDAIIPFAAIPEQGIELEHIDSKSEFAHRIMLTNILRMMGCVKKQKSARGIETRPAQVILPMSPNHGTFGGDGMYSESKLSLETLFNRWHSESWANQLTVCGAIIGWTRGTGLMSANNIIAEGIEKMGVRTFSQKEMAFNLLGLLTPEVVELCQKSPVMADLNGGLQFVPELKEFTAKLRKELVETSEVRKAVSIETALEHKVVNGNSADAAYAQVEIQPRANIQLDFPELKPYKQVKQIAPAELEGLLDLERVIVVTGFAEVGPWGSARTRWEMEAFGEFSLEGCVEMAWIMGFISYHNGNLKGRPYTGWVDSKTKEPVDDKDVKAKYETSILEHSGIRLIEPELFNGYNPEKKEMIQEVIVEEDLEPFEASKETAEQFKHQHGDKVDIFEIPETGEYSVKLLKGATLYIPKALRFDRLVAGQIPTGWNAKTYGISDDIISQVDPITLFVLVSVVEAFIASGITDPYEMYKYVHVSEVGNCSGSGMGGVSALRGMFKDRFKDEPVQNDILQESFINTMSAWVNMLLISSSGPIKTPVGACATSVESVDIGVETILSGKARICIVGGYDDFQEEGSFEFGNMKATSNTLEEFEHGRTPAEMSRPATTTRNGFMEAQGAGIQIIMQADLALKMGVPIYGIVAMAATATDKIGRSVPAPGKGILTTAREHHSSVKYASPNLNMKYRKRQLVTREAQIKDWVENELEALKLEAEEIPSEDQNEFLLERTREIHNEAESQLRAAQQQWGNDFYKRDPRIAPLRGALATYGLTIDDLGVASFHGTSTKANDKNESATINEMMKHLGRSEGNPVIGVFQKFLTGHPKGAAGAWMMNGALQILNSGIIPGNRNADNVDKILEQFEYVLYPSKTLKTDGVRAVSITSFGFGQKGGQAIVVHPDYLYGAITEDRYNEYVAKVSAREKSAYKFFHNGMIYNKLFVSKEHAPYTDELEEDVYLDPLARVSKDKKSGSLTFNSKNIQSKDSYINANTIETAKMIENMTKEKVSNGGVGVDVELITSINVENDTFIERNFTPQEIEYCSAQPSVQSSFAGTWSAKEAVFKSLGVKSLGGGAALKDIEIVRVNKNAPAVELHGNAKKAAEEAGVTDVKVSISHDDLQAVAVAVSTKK
Procedure: In another inhibition assay, Saccharomyces cerevisiae FAS complex was obtained from a yeast extract (Sigma) and assayed as described in (Stoops et al., J.B.C., 253:4464-4475, 1978). A crude preparation of Candida albicans FAS can be prepared from a 1-21 YPD overnight culture of SC5314 following essentially the protocol used for S. cerevisiae FAS, with the exception that the last purification step by gel filtration was omitted. The assay cocktail contains: 0.14 mM NADPH, 0.36 mM acetyl-CoA, 0.18 mM malonyl-CoA, 5 mM EDTA, 8 mM DTT, 0.1 M MES pH 6, 100 μM compound in 1% DMSO, and fungal FAS extract. Changes in NADPH oxidation are followed for 1 hour using a BMG fluorimeter set at 340 nm excitation and 460 nm emission. The inhibition of fatty acid synthesis in these assays is expressed as a percent activity compared to the one obtained using 1% DMSO.
A FAS assay using partially purified S. cerevisiae FAS complex was used to measure NADPH oxidation as described herein.

[3] = tested on: OLE1, YOL101c, and YGL039w genes; test: Transcriptional profiling (TxP) of yeast treated with FAS inhibitor; format: cell-based; conditions: 0.1, 0.2 and 0.3 μM; 3 and 5 hour time points
Procedure: Logarithmically growing hypersensitive yeast MMB 1489 (Δpdr5 Δsnq2) cells were treated with cerulenin at 0.5 X, 1 X, and 1.5 X the MIC value (0.1, 0.2 and 0.3 μM) and cells were harvested at 1, 3 and 5 hour time points following drug treatment. Total RNA was obtained from cell pellets treated with 0.1, 0.2, and 0.3 μM cerulenin. […] Following hybridization, the data was normalized, filtered and analyzed.

S. cerevisiae mdr mutant = test: Fungal growth inhibition (OD600) / MIC testing; format: cell-based; conditions: for MIC: Saccharomyces cerevisiae
Procedure: Assay of Fungal Growth Inhibition: If desired, the ability of each candidate compound to inhibit fungal growth can readily be measured as follows. After incubating the yeast cultures and test compounds for 6 hours in the 96-well plates, as described above, the OD600 of the plates is measured (e.g., using a Wallac/Victor 2 plate reader). The OD600 can be measured before or after the above-described chemiluminescent assay. A test compound that decreases the OD600 of a yeast culture, relative to the OD600 obtained in the absence of the candidate compound, is an antifungal agent.
For the assay, the reporter strains were grown at 30° C. overnight (approximately 14-15 hours) in SC-Leu medium. Typically, the cultures were grown to an OD600 of 0.1, though cells at OD600 of 0.05-0.15 were also appropriate. Plates were then seeded with a 100 μl aliquot of the yeast culture and incubated at 30° C. for approximately 6 hours. To identify antifungal compounds (those affording growth inhibition), the OD600 was measured using a Wallac/Victor 2 plate reader.
The library of 80,000 small molecule compounds was screened for FAS inhibitors at concentration of 100 μM with the Pole1-lacZ reporter strain. Hits were defined as compounds that afforded 2-fold Pole1-lacZ induction. The primary screen yielded 850 hits (1.1% hit rate) as defined above. Among these, 182 were deemed structurally acceptable and subjected to retesting using the same Pole1-IacZ induction assay and an antifungal assay by growth inhibition in MIC testing.

YGL039w promoter = test: YGL039w promoter-lacZ reporter induction; format: cell-based, S. cerevisiae
Excerpt: as §1
Having determined that antiflingal agents like cerulenin increase the activity of the OLE1 and YOL101 c promoters, yeast strains containing one or both promoters each operably linked to a reporter gene (e.g., lacZ) can be used in a method for determining whether a test compound is an inhibitor of fungal fatty acid synthesis and is thus a candidate antifungal agent. Such a method can be carried out as follows. […]

YOL101c promoter = test: YOL101c promoter-lacZ reporter induction (chemiluminescence); format: cell-based, S. cerevisiae
Excerpt: as §1

Clc1ccc(COC(Cn2ccnc2)c2ccc(Cl)cc2Cl)c(Cl)c1 (stereo not drawn) [miconoazole]
induction of the OLE1 reporter (OLE1 promoter): induce this reporter

CCCCCCC(=O)CCCCCC/C=C/C[C@@H](O)[C@H](O)[C@@](N)(CO)C(=O)O [myriocin]
induction of the OLE1 reporter (OLE1 promoter): induce this reporter

C/C=C/C/C=C/CCC(=O)[C@H]1O[C@H]1C(N)=O [Cerulenin, 2,3-Epoxy-4-oxo-7,1-dodecadienamide]
inhibition at 100 µM [1]: 80 to 90%
inhibition at 100 µM ([2]; 100 μM, within the first 30 minutes, read-out: inhibition of fatty acid synthesis (NADPH oxidation)): 80 to 90%
inhibition at 100 µM ([2]; read-out: FAS-NADPH ox % Inhibition @ 100 μM): 81%
IC50 ([2]; read-out: FAS-NADPH ox IC50): 0.7 to 1.3 µM
gene induction of OLE1, YOL101c and YGL039w (mRNA) [3]: most highly induced genes
inhibition of fungal growth (S. cerevisiae mdr mutant; 0.2 μg/ml): no detectable inhibition of fungal growth
inhibition of fungal growth (S. cerevisiae mdr mutant; 0.9 μM): no detectable inhibition of fungal growth
inhibition of fungal growth (S. cerevisiae mdr mutant; 2.0 μg/ml): maximum inhibition of fungal growth
inhibition of fungal growth (S. cerevisiae mdr mutant; 9 μM): maximum inhibition of fungal growth
MIC (S. cerevisiae mdr mutant): 0.2 to 0.9 µM (≈ 0.0447 to 0.201 µg/mL)
MIC (S. cerevisiae mdr mutant; read-out: MIC value): 0.2 µM (≈ 0.0447 µg/mL)
lacZ gene expression, YGL039w promoter strain (YGL039w promoter): increase in lacZ gene expression
lacZ gene expression, YOL101c promoter strain (YOL101c promoter): increase in lacZ gene expression
increase in chemiluminescence (YOL101c promoter; 9 μM, YOL101c promoter strain): 100-300 fold
lacZ gene expression, OLE1 promoter strain (OLE1 promoter): increase in lacZ gene expression
induction of promoter activity (OLE1 promoter; 0.2 μg/ml): partial induction of promoter activity
induction of promoter activity (OLE1 promoter; 0.9 μM): 50%
increase in the level of chemiluminescence relative to uninduced control (OLE1 promoter; 2.0 μg/ml): 100 fold
induction of promoter activity (OLE1 promoter; 2.0 μg/ml): maximum induction of promoter activity
induction of promoter activity (OLE1 promoter; 9 μM): maximum induction of promoter activity
increase in chemiluminescence (OLE1 promoter; 9 μM, OLE1 promoter strain): 100-300 fold
OLE1 Fold-induction (100 μM) (OLE1 promoter; 100 μM, Pole1-lacZ reporter strain): 479 Fold

From patent US20020037495A1, “High throughput screening for inhibitors of fatty acid, ergosterol, sphingolipid, or phospholipid synthesis in fungi” (priority 2000, published 2002)
